Measured values reported in publication PMC5602538, “Assessment of the Drug Interaction Potential of Unconjugated and GalNAc3-Conjugated 2′-MOE-ASOs” (Molecular Therapy. Nucleic Acids, 2017).
{GalNAc3} = trishexylamino-C6 triantennary GalNAc conjugate; e = 2'-O-(2-methoxyethyl) (MOE); d = 2'-deoxy (DNA)

Tests used:
human hepatocytes = test: Hepatocyte uptake (cell pellet and supernatant concentrations by LC-UV/MS); format: in vitro ADME; details: for Cellular concentration in hepatocytes: test concentration of 1.00 μM
Experimental: A time-course experiment was conducted in triplicate for each concentration of test compound for 0, 30, 60, and 120 min incubations at 37°C with 5% CO2. At the end of each respective time point, the cell suspensions were centrifuged for 8 min at a speed of 50 × g, and the supernatant from each sample was collected. The cell pellets were washed by resuspension in Williams’ Medium E, followed by centrifugation at 50 × g for 8 min. The supernatant from the wash step was discarded and the remaining cell pellets were kept for analysis. Cell pellets and respective supernatants were measured for the presence of ASO by LC-MS.
Samples were analyzed using a tandem LC-UV/MS method. A total of 72 samples per ASO, corresponding to human hepatocyte cells and supernatant fractions, was assayed. Samples, curves, and controls (QCs) were aliquoted into 96-well plates and internal standard was added. Aliquots in 96-well plates were extracted via a liquid-liquid extraction using ammonium hydroxide and phenol:chloroform:isoamyl alcohol (25:24:1). The aqueous layer was then further processed via solid phase extraction (Phenomenex, Strata X SPE), and then dried down under nitrogen and reconstituted in 140 μL of water containing 100 μM EDTA. Samples were then injected onto an Agilent 6130 LC-MS system for analysis. Two curves were created for quantitation, one utilizing UV absorbance at 260 nm and an additional curve using single ion monitoring data from the mass spectrometer. The calibration range using the MS detector was 0.0640–641 μM with liver homogenate, as used to quantitate the concentration in hepatocyte pellet samples. A minimum signal-to-noise ratio of 5:1 was used to distinguish ASO peaks from background noise. […] Acceptance criteria for calibration and QC standards were set to 85%–115% of nominal values. For the MS, three QC levels were run in triplicate at 1.60 μM, 160 μM, and 481 μM and eight of the nine QCs passed. For the UV, three QC levels were run in triplicate at 160 μM, 481 μM, and 3,205 μM and all QCs passed. All samples were stored at −70°C ± 10°C upon receipt. Hepatocyte cell count conversion to μM liver weight equivalent was calculated by converting the number of hepatocytes per sample to the liver weight equivalent: [(0.1 × 10^6 cells per sample)/128 × 10^6 cells/g)] × […] = 0.78 mg, where 1 g of liver contains 128 × 10^6 cells/g. Supernatant concentrations are calculated assuming a 100% recovery and that 1 mL William E Medium is equal to 1 g. The calibration range for ASOs in transporter studies was 0.01–10 μM in 100 μL for RLT buffer and 0.005–10 μM in 100 μL for HBSS buffer.

BSEP = tested on: T1, BSEP; test: BSEP substrate study in Sf9 membrane vesicles; format: in vitro ADME; details: 10 μM ASO, ATP vs AMP
T1 construct: purchased Life Technologies; host or cells: Sf9 cells (membrane vesicles)
Experimental: The test system included a 96-well flat bottom plate containing a suspension of vesicles and a 96-well glass fiber filtration plate. Transport experiments were initiated with the addition of Mg-ATP (for ATP-dependent BSEP uptake) or AMP (non-ATP-dependent uptake) to appropriate wells. Preparation of the flat-bottom plates included incubation with blocking buffer for 60 min at 37°C with orbital shaking at 120 rpm. After 60 min, the blocking buffer was completely removed and assay uptake buffer solutions were added. For BSEP inhibition studies, solutions contained 1 μM [^3H]-taurocholic acid as a substrate and either assay vehicle, test article (at 100 μM), or reference inhibitor (300 μM rifampicin). For BSEP substrate studies, solutions contained either 1 μM [^3H]-taurocholic acid or 10 μM test article. Vesicles were added to assay plates and incubated at 37°C with orbital shaking at 120 rpm for 15 min. To initiate the assay, either Mg-ATP or AMP was added to test wells at a final concentration of 5 mM. Plates were incubated at 37°C with orbital shaking at 120 rpm for 15 min. A glass fiber filtration plate was incubated with blocking buffer for 2 min. Vacuum was then applied to remove the blocking buffer, and ice-cold wash buffer was added to the filtration plate. Vesicular transport was quenched by adding ice-cold wash buffer. Assay samples were then mixed as diluted in wash buffer and 175 μL was transferred into the 96-well glass fiber filtration plate to separate vesicles. […] These samples were counted using a 1450 Microbeta (Perkin-Elmer). […] The test article was quantitated by LC-MS. […]
Signal to noise for the BSEP probe substrate was calculated by dividing the uptake of the probe substrate in BSEP-expressing vesicles in the presence of ATP by the uptake of the BSEP substrate in the vesicles in the presence of AMP. Percent inhibition in the presence of the test article or the reference inhibitors was calculated as: %inhibition=100−(100×(ATP−dependent,transportor−mediatedaccumulation)withinhibitor/(ATP−dependent,transportor−mediatedaccumulation)withoutinhibitor).

Row | Substance | Average cellular concentration in hepatocytes (human hepatocytes; after 30-min incubation) | Average cellular concentration in hepatocytes (human hepatocytes; after 120-min incubation) | BSEP-mediated uptake relative to corresponding controls (BSEP) | Cellular concentration in hepatocytes (human hepatocytes; after 120 min of incubation) | Cellular concentration in hepatocytes (human hepatocytes; time points 0–60 min)
1 | ISIS 304801: 20-mer (5-10-5) 2′-MOE gapmer PS backbone antisense inhibitor of apoC-III, sequence AGCTTCTTGTCCAGCTTTAT (sugars from the 5' end e5 d10 e5, all phosphorothioate, methylation of C not given here) | 56.3 µM | 140 µM | < 2 fold |  | 
2 | ISIS 420915: 20-mer 2′-MOE gapmer PS backbone antisense inhibitor of transthyretin, sequence TCTTGGTTACATGAAATCCC (all phosphorothioate, sugars by position and methylation of C not given here; 2'-MOE gapmer) | 52.2 µM | 106 µM | < 2 fold |  | 
3 | ISIS 681257: 20-mer 2′-MOE gapmer PS/PO mixed backbone ASO conjugated to 5′-trishexylamino GalNAc3, targets Lp(a), sequence TGCTCCGTTGGTGCTTGTTC (5' {GalNAc3}, sugars by position and backbone not given here; 2'-MOE gapmer with mixed PS/PO backbone) | 14.0 µM | 50.6 µM | < 2 fold | 0.626 µM | below the level of quantitation
